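Cultured in 96-well plates, cells were exposed to test compound for 48 hours across five concentrations. GI50 = concentration required for 50% inhibition of growth.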 Activity calls are given as the source filed them. Rule as the data show it: active = GI50 up to about 1.1 µM and inactive = higher.
What was measured:
Experiment in all cases: NCI tumour cell line growth inhibition, 48 h
SF-539 = tested on: SF-539
COLO 205 = tested on: COLO 205
UO-31 = tested on: UO-31
MOLT-4 = tested on: MOLT-4
OVCAR-4 = tested on: OVCAR-4
SF-295 = tested on: SF-295
CCRF-CEM = tested on: CCRF-CEM
PC-3 = tested on: PC-3
NCI-H522 = tested on: NCI-H522
A549 = tested on: A549
SK-MEL-2 = tested on: SK-MEL-2
SNB-75 = tested on: SNB-75
SNB-19 = tested on: SNB-19
RXF 393 = tested on: RXF 393
LOX IMVI = tested on: LOX IMVI
OVCAR-3 = tested on: OVCAR-3
HL-60 = tested on: HL-60
MDA-MB-435 = tested on: MDA-MB-435
SK-MEL-5 = tested on: SK-MEL-5
MDA-N = tested on: MDA-N
HCC 2998 = tested on: HCC 2998
HCT-116 = tested on: HCT-116
OVCAR-8 = tested on: OVCAR-8
MDA-MB-231 = tested on: MDA-MB-231
CAKI-1 = tested on: CAKI-1
NCI-H460 = tested on: NCI-H460
SN12C = tested on: SN12C
NCI-H226 = tested on: NCI-H226
BT-549 = tested on: BT-549
SK-OV-3 = tested on: SK-OV-3
DU-145 = tested on: DU-145
RPMI-8226 = tested on: RPMI-8226
HOP-92 = tested on: HOP-92
IGROV-1 = tested on: IGROV-1
KM12 = tested on: KM12
K562 = tested on: K562
SF-268 = tested on: SF-268
TK-10 = tested on: TK-10
EKVX = tested on: EKVX
A498 = tested on: A498
786-0 = tested on: 786-0
HT-29 = tested on: HT-29
SW-620 = tested on: SW-620
NCI/ADR-RES = tested on: NCI/ADR-RES
OVCAR-5 = tested on: OVCAR-5
M14 = tested on: M14
Malme-3M = tested on: Malme-3M
HCT-15 = tested on: HCT-15
NCI-H23 = tested on: NCI-H23
UACC-62 = tested on: UACC-62
ACHN = tested on: ACHN
Hs-578T = tested on: Hs-578T
MCF7 = tested on: MCF7
UACC-257 = tested on: UACC-257
T47D = tested on: T47D
U-251 = tested on: U-251
HOP-62 = tested on: HOP-62
SK-MEL-28 = tested on: SK-MEL-28

With `CCOC(=O)/C(=C\c1ccc(C#N)cc1)C(C)=O` the GI50 (SF-539) was 29 µM (inactive), the GI50 (COLO 205) was 31.3 µM (inactive) and the GI50 (UO-31) was 13.8 µM (inactive). The GI50 (MOLT-4) was 25.5 µM (inactive), the GI50 (OVCAR-4) was 23.3 µM (inactive) and the GI50 (SF-295) was 34.5 µM (inactive). For the same compound, the GI50 (CCRF-CEM) was 13.5 µM (inactive), the GI50 (PC-3) was 18.5 µM (inactive) and the GI50 (NCI-H522) was 11.5 µM (inactive). The GI50 (A549) was 60.8 µM (inactive), the GI50 (SK-MEL-2) was 15.2 µM (inactive) and the GI50 (SNB-75) was 14.6 µM (inactive). The GI50 (SNB-19) was 45.1 µM (inactive), the GI50 (RXF 393) was 15.3 µM (inactive) and the GI50 (LOX IMVI) was 19.9 µM (inactive). The GI50 (OVCAR-3) was 36.6 µM (inactive), the GI50 (HL-60) was 34 µM (inactive) and the GI50 (MDA-MB-435) was 26.8 µM (inactive). The GI50 (SK-MEL-5) was 21.5 µM (inactive), the GI50 (MDA-N) was 31.1 µM (inactive) and the GI50 (HCC 2998) was 5.92 µM (inactive). The GI50 (HCT-116) was 23.3 µM (inactive), the GI50 (OVCAR-8) was 36.6 µM (inactive) and the GI50 (MDA-MB-231) was 15.6 µM (inactive). For the same compound, the GI50 (CAKI-1) was 22.2 µM (inactive), the GI50 (NCI-H460) was 28.8 µM (inactive) and the GI50 (SN12C) was 25.2 µM (inactive). The GI50 (NCI-H226) was 35.1 µM (inactive), the GI50 (BT-549) was 13.5 µM (inactive) and the GI50 (SK-OV-3) was 40.8 µM (inactive). For the same compound, the GI50 (DU-145) was 18.2 µM (inactive), the GI50 (RPMI-8226) was 22 µM (inactive) and the GI50 (HOP-92) was 17.4 µM (inactive). For the same compound, the GI50 (IGROV-1) was 16.8 µM (inactive), the GI50 (KM12) was 18.6 µM (inactive) and the GI50 (K562) was 30.7 µM (inactive). The GI50 (SF-268) was 25.2 µM (inactive), the GI50 (TK-10) was 24 µM (inactive) and the GI50 (EKVX) was 49.7 µM (inactive). The GI50 (A498) was 13.3 µM (inactive), the GI50 (786-0) was 18.4 µM (inactive) and the GI50 (HT-29) was 33.4 µM (inactive). The GI50 (SW-620) was 21.2 µM (inactive), the GI50 (NCI/ADR-RES) was 28.1 µM (inactive) and the GI50 (OVCAR-5) was 30.8 µM (inactive). For the same compound, the GI50 (M14) was 30 µM (inactive), the GI50 (Malme-3M) was 15.2 µM (inactive) and the GI50 (HCT-15) was 18.2 µM. The GI50 (NCI-H23) was 17.5 µM (inactive), the GI50 (UACC-62) was 2.23 µM (inactive) and the GI50 (ACHN) was 23.6 µM (inactive). For the same compound, the GI50 (Hs-578T) was 24.3 µM (inactive), the GI50 (MCF7) was 19.9 µM (inactive) and the GI50 (UACC-257) was 18.6 µM (inactive). For the same compound, the GI50 (T47D) was 21.4 µM (inactive), the GI50 (U-251) was 16.2 µM (inactive) and the GI50 (HOP-62) was 36.8 µM (inactive).

`CSc1cc(-c2cccs2)sc1-c1cc(SC)c(-c2sc(-c3sc(-c4cccs4)cc3SC)cc2SC)s1` was tested, and the GI50 (SF-539) was > 100 µM (inactive), the GI50 (COLO 205) was > 100 µM (inactive) and the GI50 (MOLT-4) was > 100 µM (inactive). The GI50 (OVCAR-4) was > 100 µM (inactive), the GI50 (SF-295) was > 100 µM (inactive) and the GI50 (CCRF-CEM) was > 100 µM (inactive). For the same compound, the GI50 (PC-3) was > 100 µM (inactive), the GI50 (NCI-H522) was > 100 µM (inactive) and the GI50 (A549) was > 100 µM (inactive). For the same compound, the GI50 (SK-MEL-2) was > 100 µM (inactive), the GI50 (SNB-19) was > 100 µM (inactive) and the GI50 (RXF 393) was > 100 µM (inactive). For the same compound, the GI50 (LOX IMVI) was > 100 µM (inactive), the GI50 (OVCAR-3) was > 100 µM (inactive) and the GI50 (HL-60) was > 100 µM (inactive). For the same compound, the GI50 (MDA-MB-435) was > 100 µM (inactive), the GI50 (SK-MEL-5) was > 100 µM (inactive) and the GI50 (MDA-N) was > 100 µM (inactive). For the same compound, the GI50 (HCC 2998) was > 100 µM (inactive), the GI50 (HCT-116) was > 100 µM (inactive) and the GI50 (OVCAR-8) was > 100 µM (inactive). The GI50 (MDA-MB-231) was > 100 µM (inactive), the GI50 (CAKI-1) was > 100 µM (inactive) and the GI50 (NCI-H460) was > 100 µM (inactive). For the same compound, the GI50 (SN12C) was > 100 µM (inactive), the GI50 (BT-549) was > 100 µM (inactive) and the GI50 (SK-OV-3) was > 100 µM (inactive). The GI50 (DU-145) was > 100 µM (inactive), the GI50 (RPMI-8226) was > 100 µM (inactive) and the GI50 (HOP-92) was > 100 µM (inactive). The GI50 (IGROV-1) was > 100 µM (inactive), the GI50 (KM12) was > 100 µM (inactive) and the GI50 (K562) was > 100 µM (inactive). For the same compound, the GI50 (SF-268) was > 100 µM (inactive), the GI50 (TK-10) was > 100 µM (inactive) and the GI50 (EKVX) was > 100 µM (inactive). For the same compound, the GI50 (A498) was > 100 µM (inactive), the GI50 (786-0) was > 100 µM (inactive) and the GI50 (HT-29) was > 100 µM (inactive). For the same compound, the GI50 (SW-620) was > 100 µM (inactive), the GI50 (NCI/ADR-RES) was > 100 µM (inactive) and the GI50 (OVCAR-5) was 30.6 µM (inactive). The GI50 (M14) was > 100 µM (inactive), the GI50 (Malme-3M) was > 100 µM (inactive) and the GI50 (SK-MEL-28) was > 100 µM (inactive). For the same compound, the GI50 (HCT-15) was greater than 100 µM, the GI50 (NCI-H23) was > 100 µM (inactive) and the GI50 (UACC-62) was > 100 µM (inactive). The GI50 (ACHN) was > 100 µM (inactive), the GI50 (Hs-578T) was > 100 µM (inactive) and the GI50 (MCF7) was > 100 µM (inactive). The GI50 (UACC-257) was > 100 µM (inactive), the GI50 (T47D) was > 100 µM (inactive) and the GI50 (U-251) was > 100 µM (inactive). The GI50 (HOP-62) was > 100 µM (inactive).
